pIC50: −log10 of the molar value.
Legend:
SW620 cells = assay: Ras cellular assay, growth of cells with K-Ras G12V mutation (CellTiter-Glo); format: cell-based; conditions: Homo sapiens, SW-620; cell growth, Example 9, G12V mutation; read-out: IC50 against SW620 cells
Outline: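 SW620 (K-Ras G12V) cells, e.g. 800/well in RPMI-1640 with 10% heat-inactivated FBS on standard or ultra-low attachment plates, were dosed the day after plating with e.g. a 10-point 3-fold series. Viability by CellTiter-Glo luminescence about 6 days later; IC50 from four-parameter fit.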

K-Ras G12D = biological target: T1, K-Ras G12D (Homo sapiens, UniProt P01116, G12D); assay: HTRF resonance energy transfer assay, K-Ras G12D / SOS1 interaction; format: biochemical; conditions: HTRF assay of Example 5; read-out: IC50 against K-Ras G12D
T1 construct: made in house; host or cells: E. coli BL21 (DE3)
Outline: (§1)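 GST-tagged K-Ras (WT or mutant) bound to anti-GST-Eu donor was mixed with His-hSOS1 bound to anti-6His-XL665 acceptor in ~5 mM HEPES pH 7.4, 150 mM NaCl, 1 mM DTT, 0.05% BSA, 0.0025% Igepal. HTRF (ex 337, em 620/665 nm) was read after ~10 min or longer. IC50 came from the 665/620 ratio over duplicates from 10 μM to 0.01 μM.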

K-Ras G12V = biological target: T2, K-Ras G12V (Homo sapiens, UniProt P01116, G12V); assay: HTRF resonance energy transfer assay, K-Ras G12V / SOS1 interaction; format: biochemical; conditions: HTRF assay of Example 5; read-out: IC50 against K-Ras G12V
T2 construct: made in house; host or cells: E. coli BL21 (DE3)
Outline: as §1

A549 cells = assay: Ras cellular assay, growth of cells with K-Ras G12S mutation (CellTiter-Glo); format: cell-based; conditions: Homo sapiens, cell growth, Example 9, G12S mutation, read-out: IC50 against A549 cells
Outline: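 A549 cells (K-Ras G12S) in RPMI-1640 with 10% heat-inactivated FBS, seeded e.g. 800 per well in standard or ultra-low-attachment 384-well plates, treated next day with a dilution series (e.g. 10-point, 3-fold). Viability by CellTiter-Glo luminescence about 6 days later; IC50 from four-parameter fit.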

GP2D cells = assay: Ras cellular assay, growth of cells with K-Ras G12D mutation (CellTiter-Glo); format: cell-based; conditions: cell growth, Example 9, G12D mutation, read-out: IC50 against GP2D cells
K-Ras WT = biological target: T3, K-Ras WT (Homo sapiens, UniProt P01116); assay: HTRF resonance energy transfer assay, K-Ras WT / SOS1 interaction; format: biochemical; conditions: HTRF assay of Example 5; read-out: IC50 against K-Ras WT
T3 construct: made in house; host or cells: E. coli BL21 (DE3)
Outline: as §1

K-Ras G12S = biological target: T4, K-Ras G12S (Homo sapiens, UniProt P01116, G12S); assay: HTRF resonance energy transfer assay, K-Ras G12S / SOS1 interaction; format: biochemical; conditions: HTRF assay of Example 5; read-out: IC50 against K-Ras G12S
T4 construct: made in house; host or cells: E. coli BL21 (DE3)
Outline: as §1

T2 sequence (P01116 1-188 isoform P01116-2 G12V): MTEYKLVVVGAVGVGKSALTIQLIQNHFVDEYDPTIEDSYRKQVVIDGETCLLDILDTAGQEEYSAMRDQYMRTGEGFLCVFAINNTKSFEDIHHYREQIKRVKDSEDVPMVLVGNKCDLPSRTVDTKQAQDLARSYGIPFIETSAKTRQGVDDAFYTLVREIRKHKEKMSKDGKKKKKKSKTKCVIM
T1 sequence (P01116 1-188 isoform P01116-2 G12D): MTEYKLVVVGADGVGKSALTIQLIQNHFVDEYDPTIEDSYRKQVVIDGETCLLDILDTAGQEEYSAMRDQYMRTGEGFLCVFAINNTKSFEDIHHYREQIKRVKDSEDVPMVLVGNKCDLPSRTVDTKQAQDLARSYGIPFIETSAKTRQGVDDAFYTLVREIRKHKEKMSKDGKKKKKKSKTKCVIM
T3 sequence (P01116 1-188 isoform P01116-2): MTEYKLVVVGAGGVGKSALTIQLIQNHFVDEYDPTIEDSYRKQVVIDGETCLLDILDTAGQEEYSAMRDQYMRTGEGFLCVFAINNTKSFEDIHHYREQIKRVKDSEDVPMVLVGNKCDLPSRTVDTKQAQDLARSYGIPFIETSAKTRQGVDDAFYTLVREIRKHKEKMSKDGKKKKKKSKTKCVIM
T4 sequence (P01116 1-188 isoform P01116-2 G12S): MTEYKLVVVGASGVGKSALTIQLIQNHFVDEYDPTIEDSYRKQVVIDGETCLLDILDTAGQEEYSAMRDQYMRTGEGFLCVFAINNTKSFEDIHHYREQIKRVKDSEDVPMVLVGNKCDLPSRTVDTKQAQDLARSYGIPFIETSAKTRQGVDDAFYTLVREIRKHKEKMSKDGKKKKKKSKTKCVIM

Row | pIC50 (SW620 cells) | pIC50 (K-Ras G12D) | pIC50 (K-Ras G12V) | pIC50 (A549 cells) | pIC50 (K-Ras WT) | pIC50 (K-Ras G12S) | Structure (SMILES) | pIC50 (GP2D cells)
1 | > 5.30 | > 7.00 | > 7.00 | > 5.30 | > 7.00 | > 7.00 | N#Cc1c(N)sc2c(F)ccc(-c3c(Cl)c4c5c(nc(OC[C@@]67CCCN6C[C@H](F)C7)nc5c3F)N(CC(F)F)CC(CO)O4)c12 (stereo partly drawn) [Compound 1002, 2-amino-4-(8-chloro-4-(2,2-difluoroethyl)-10-fluoro-2-(((2R,7aS)-2-fluorotetrahydro-1H-pyrrolizin-7a(5H)-yl)methoxy)-6-(hydroxymethyl)-5,6-dihydro-4H-[1,4]oxazepino[5,6,7-de]quinazolin-9-yl)-7-fluorobenzo[b]thiophene-3-carbonitrile] | > 6.30
2 | > 5.30 | > 7.00 | > 7.00 | > 5.30 | > 7.00 | > 7.00 | N#Cc1c(N)sc2c(F)ccc(-c3c(Cl)c4c5c(nc(OC[C@@]67CCCN6C[C@H](F)C7)nc5c3F)N(C35COC(CF)(C3)C5)CCO4)c12 [Compound 972, 2-amino-4-(8-chloro-10-fluoro-4-(1-(fluoromethyl)-2-oxabicyclo[2.1.1]hexan-4-yl)-2-(((2R,7aS)-2-fluorotetrahydro-1H-pyrrolizin-7a(5H)-yl)methoxy)-5,6-dihydro-4H-[1,4]oxazepino[5,6,7-de]quinazolin-9-yl)-7-fluorobenzo[b]thiophene-3-carbonitrile] | > 6.30
3 | > 5.30 | > 7.00 | > 7.00 | > 5.30 | > 7.00 | > 7.00 | N#Cc1c(N)sc2c(F)ccc(-c3c(Cl)c4c5c(nc(OC[C@@]67CCCN6C[C@H](F)C7)nc5c3F)N(C3CCN(C(=O)[C@H]5CCCO5)C3)CCO4)c12 (stereo partly drawn) [Compound 705, 2-amino-4-(8-chloro-10-fluoro-2-(((2R,7aS)-2-fluorotetrahydro-1H-pyrrolizin-7a(5H)-yl)methoxy)-4-(1-((R)-tetrahydrofuran-2-carbonyl)pyrrolidin-3-yl)-5,6-dihydro-4H-[1,4]oxazepino[5,6,7-de]quinazolin-9-yl)-7-fluorobenzo[b]thiophene-3-carbonitrile] | > 6.30
4 | > 5.30 | > 7.00 | > 7.00 | > 5.30 | > 7.00 | > 7.00 | N#Cc1c(N)sc2c(F)ccc(-c3c(Cl)c4c5c(nc(OC[C@@]67CCCN6C[C@H](F)C7)nc5c3F)N([C@H]3CCN(C(=O)C(F)F)C3)CCO4)c12 [Compound 940, 2-amino-4-(8-chloro-4-((S)-1-(2,2-difluoroacetyl)pyrrolidin-3-yl)-10-fluoro-2-(((2R,7aS)-2-fluorotetrahydro-1H-pyrrolizin-7a(5H)-yl)methoxy)-5,6-dihydro-4H-[1,4]oxazepino[5,6,7-de]quinazolin-9-yl)-7-fluorobenzo[b]thiophene-3-carbonitrile] | > 6.30
5 | > 5.30 | > 7.00 | > 7.00 | > 5.30 | > 7.00 | > 7.00 | N#Cc1c(N)sc2c(F)ccc(-c3c(Cl)c4c5c(nc(OC[C@@]67CCCN6C[C@H](F)C7)nc5c3F)N(C3CCOC3)CC(O)CO4)c12 (stereo partly drawn) [Compound 1225, 2-amino-4-(9-chloro-11-fluoro-2-(((2R,7aS)-2-fluorotetrahydro-1H-pyrrolizin-7a(5H)-yl)methoxy)-6-hydroxy-4-(tetrahydrofuran-3-yl)-4,5,6,7-tetrahydro-[1,5]oxazocino[4,3,2-de]quinazolin-10-yl)-7-fluorobenzo[b]thiophene-3-carbonitrile] | > 6.30
6 | > 5.30 | > 7.00 | > 7.00 | > 5.30 | > 7.00 | > 7.00 | N#Cc1c(N)sc2c(F)ccc(-c3c(Cl)c4c5c(nc(OC[C@@]67CCCN6C[C@H](F)C7)nc5c3F)N(CC3(C#N)CC3)CCO4)c12 [Compound 798, 2-amino-4-(8-chloro-4-((1-cyanocyclopropyl)methyl)-10-fluoro-2-(((2R,7aS)-2-fluorotetrahydro-1H-pyrrolizin-7a(5H)-yl)methoxy)-5,6-dihydro-4H-[1,4]oxazepino[5,6,7-de]quinazolin-9-yl)-7-fluorobenzo[b]thiophene-3-carbonitrile] | > 6.30
7 | > 5.30 | > 7.00 | > 7.00 | > 5.30 | > 7.00 | > 7.00 | CS(=O)(=O)N1CCC(N2CCOc3c(Cl)c(-c4ccc(F)c5sc(N)c(C#N)c45)c(F)c4nc(OC[C@@]56CCCN5C[C@H](F)C6)nc2c34)C1 (stereo partly drawn) [Compound 966, 2-amino-4-(8-chloro-10-fluoro-2-(((2R,7aS)-2-fluorotetrahydro-1H-pyrrolizin-7a(5H)-yl)methoxy)-4-(1-(methylsulfonyl)pyrrolidin-3-yl)-5,6-dihydro-4H-[1,4]oxazepino[5,6,7-de]quinazolin-9-yl)-7-fluorobenzo[b]thiophene-3-carbonitrile] | > 6.30
8 | > 5.30 | > 7.00 | > 7.00 | > 5.30 | > 7.00 | > 7.00 | CC(C)N1CCOc2c(Cl)c(-c3ccc(F)c4sc(N)c(C#N)c34)c(F)c3nc(OC[C@@]45CCCN4C[C@H](F)C5)nc1c23 [Compound 1025, 2-amino-4-(8-chloro-10-fluoro-2-(((2R,7aS)-2-fluorotetrahydro-1H-pyrrolizin-7a(5H)-yl)methoxy)-4-isopropyl-5,6-dihydro-4H-[1,4]oxazepino[5,6,7-de]quinazolin-9-yl)-7-fluorobenzo[b]thiophene-3-carbonitrile] | > 6.30
9 | > 5.30 | > 7.00 | > 7.00 | > 5.30 | > 7.00 | > 7.00 | N#Cc1c(N)sc2c(F)ccc(-c3c(Cl)c4c5c(nc(OC[C@@]67CCCN6C[C@H](F)C7)nc5c3F)N(C3CC3)CCO4)c12 [Compound 891, 2-amino-4-(8-chloro-4-cyclopropyl-10-fluoro-2-(((2R,7aS)-2-fluorotetrahydro-1H-pyrrolizin-7a(5H)-yl)methoxy)-5,6-dihydro-4H-[1,4]oxazepino[5,6,7-de]quinazolin-9-yl)-7-fluorobenzo[b]thiophene-3-carbonitrile] | > 6.30
10 | > 5.30 | > 7.00 | > 7.00 | > 5.30 | > 7.00 | > 7.00 | C[C@@H](O)[C@H]1COc2c(Cl)c(-c3ccc(F)c4sc(N)c(C#N)c34)c(F)c3nc(OC[C@@]45CCCN4C[C@H](F)C5)nc(c23)N1CCC(F)F (single isomer, unassigned) [Compound 820] | > 6.30
11 | > 5.30 | > 7.00 | > 7.00 | > 5.30 | > 7.00 | > 7.00 | N#Cc1c(N)sc2c(F)ccc(-c3c(Cl)c4c5c(nc(OC[C@@]67CCCN6C[C@H](F)C7)nc5c3F)N(C3CCN(C(=O)COC(F)F)C3)CCO4)c12 (stereo partly drawn) [Compound 785, 2-amino-4-(8-chloro-4-(1-(2-(difluoromethoxy)acetyl)pyrrolidin-3-yl)-10-fluoro-2-(((2R,7aS)-2-fluorotetrahydro-1H-pyrrolizin-7a(5H)-yl)methoxy)-5,6-dihydro-4H-[1,4]oxazepino[5,6,7-de]quinazolin-9-yl)-7-fluorobenzo[b]thiophene-3-carbonitrile] | > 6.30

Row | Structure (SMILES) | pIC50 (SW620 cells) | pIC50 (K-Ras G12D) | pIC50 (K-Ras G12V) | pIC50 (A549 cells) | pIC50 (K-Ras WT) | pIC50 (K-Ras G12S) | pIC50 (GP2D cells)
12 | N#Cc1c(N)sc2c(F)ccc(-c3c(Cl)c4c5c(nc(OC[C@@]67CCCN6C[C@H](F)C7)nc5c3F)N(C3CCN(C(=O)[C@@H]5N[C@H]5C5CC5)C3)CCO4)c12 (stereo partly drawn) [Compound 915, 2-amino-4-(8-chloro-4-(1-((2R,3S)-3-cyclopropylaziridine-2-carbonyl)pyrrolidin-3-yl)-10-fluoro-2-(((2R,7aS)-2-fluorotetrahydro-1H-pyrrolizin-7a(5H)-yl)methoxy)-5,6-dihydro-4H-[1,4]oxazepino[5,6,7-de]quinazolin-9-yl)-7-fluorobenzo[b]thiophene-3-carbonitrile] | > 5.30 | > 7.00 | > 7.00 | > 5.30 | > 7.00 | > 7.00 | > 6.30

From patent US12209102B2, “Heterocyclic compounds and uses thereof” (Kumquat Biosciences Inc., priority 2022, dated 2025)
